Test results: patent US20200254026A1, “AGENT FOR PROMOTING MIGRATION OF PLURIPOTENT STEM CELLS” (NIPPON ZOKI PHARMACEUTICAL CO., LTD., priority 2015, published 2020)

Tested on: Muse cells (SSEA-3-positive cells)
Experiment: Cell mobility analysis (EZ-TAXIScan), chemotactic ability of Muse cells
Format: cell-based
Settings: SSEA-3-positive cells from human bone marrow mesenchymal stem cells; 2 μM S1P as positive control; photographed every 10 minutes
Description: Mesenchymal stem cells derived from human bone marrow in a concentration of 1×10^7 cells/mL were prepared using an FACS buffer containing Dulbecco PBS, 0.5% bovine serum albumin, and 2 mM EDTA (ethylenediaminetetraacetic acid). Thereto, an anti-SSEA-3 antibody (diluted 400 times) was added as a primary antibody. Reaction was allowed to proceed on ice for 1 hour while being suspended at appropriate times, followed by centrifugation for supernatant removal. Then, the addition and removal of an FACS buffer were repeated three times for rinsing. Thereto, an FITC-labeled anti-rat-IgM antibody (diluted 100 times) was added as a secondary antibody. Subsequently, in the same manner as above, reaction was allowed to proceed on ice for 1 hour and then addition and removal of an FACS buffer were repeated three times for rinsing. SSEA-3-positive cells were separated by FACS the day before measurement, followed by overnight culturing under conditions of 37° C. and 5% CO2. […] The resulting cell suspension was injected into each well of an EZ-[…] (registered trademark; the same applies hereinafter) holder chamber (GE Healthcare), and the cells were aligned properly in front of a terrace by a water-level difference method. […] The EZ-[…] holder chamber was placed in an incubator under conditions of 37° C. and 5% CO2. […]

CCCCCCCCCCCCC/C=C/[C@@H](O)[C@@H](N)COP(=O)(O)O [S1P, sphingosine-1-phosphate]
movement of Muse cells (chemotactic ability with time): same movement of Muse cells was observed
